From PubChem BioAssay AID248 (DTP/NCI, 2004)
Values joined by “and” are separate entries in the source; they are usually repeats but may differ in a detail not shown here. Equal values may be shown once. Toxic doses and inconclusive results are not listed. Rule as the data show it: active = T/C of 150% or more; inactive = T/C below 125%.

System: L1210 leukemia ip in BDF1 mice, survival T/C
Assay: NCI In Vivo Anticancer Drug Screen. Data for tumor model L1210 Leukemia (intraperitoneal) in B6D2F1 (BDF1) mice
Settings: endpoint: mean survival time, higher = longer survival
Procedure, shortened: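 Survival endpoint. Drug-treated group vs vehicle group, expressed as T divided by C. Tumor passaged by transplantation.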

[1] = dose: 50.0 mg/kg/injection, schedule: Q01DX009 (ip), vehicle: Klucel (hydroxypropylcellulose) (HPC)
[2] = dose: 100.0 mg/kg/injection, schedule: Q01DX009 (ip), vehicle: Klucel (hydroxypropylcellulose) (HPC)
[3] = dose: 100.0 mg/kg/injection, schedule: Q04DX003 (ip), vehicle: Klucel (hydroxypropylcellulose) (HPC)
[4] = dose: 200.0 mg/kg/injection, schedule: Q01DX009 (ip), vehicle: Klucel (hydroxypropylcellulose) (HPC)
[5] = dose: 200.0 mg/kg/injection, schedule: Q04DX003 (ip), vehicle: Klucel (hydroxypropylcellulose) (HPC)
[6] = dose: 400.0 mg/kg/injection, schedule: Q04DX003 (ip), vehicle: Klucel (hydroxypropylcellulose) (HPC)

Measured: T/C

CC1CN1P(=O)(N1CCCCC1)N1CC1C (stereo not given)
inactive: dose: 11.0 mg/kg/injection, schedule: Q01DX Z (ip), vehicle: carboxymethylcellulose (CMC) 97 % of control | dose: 11.0 mg/kg/injection, schedule: Q01DX Z (ip), vehicle: saline 109 % of control | dose: 13.0 mg/kg/injection, schedule: Q01DX Z (ip), vehicle: carboxymethylcellulose (CMC) 102 % of control | dose: 17.0 mg/kg/injection, schedule: Q01DX Z (ip), vehicle: carboxymethylcellulose (CMC) 119 % of control | dose: 17.0 mg/kg/injection, schedule: Q01DX Z (ip), vehicle: saline 116 % of control | dose: 20.0 mg/kg/injection, schedule: Q01DX Z (ip), vehicle: carboxymethylcellulose (CMC) 102 % of control | dose: 25.0 mg/kg/injection, schedule: Q01DX Z (ip), vehicle: carboxymethylcellulose (CMC) 104 % of control and 116 % of control | dose: 25.0 mg/kg/injection, schedule: Q01DX Z (ip), vehicle: saline 104 % of control | dose: 30.0 mg/kg/injection, schedule: Q01DX Z (ip), vehicle: carboxymethylcellulose (CMC) 105 % of control | dose: 38.0 mg/kg/injection, schedule: Q01DX Z (ip), vehicle: carboxymethylcellulose (CMC) 115 % of control and 116 % of control | dose: 45.0 mg/kg/injection, schedule: Q01DX Z (ip), vehicle: carboxymethylcellulose (CMC) 100 % of control and 115 % of control | dose: 57.0 mg/kg/injection, schedule: Q01DX Z (ip), vehicle: saline 118 % of control | dose: 85.0 mg/kg/injection, schedule: Q01DX Z (ip), vehicle: carboxymethylcellulose (CMC) 109 % of control | dose: 86.0 mg/kg/injection, schedule: Q01DX Z (ip), vehicle: saline 102 % of control and 113 % of control

CC(C)=NNC(=O)CNc1cccc(C(F)(F)F)c1
inactive: dose: 100.0 mg/kg/injection, schedule: Q04DX002 (ip), vehicle: Klucel (hydroxypropylcellulose) (HPC) 107 % of control | dose: 200.0 mg/kg/injection, schedule: Q04DX002 (ip), vehicle: Klucel (hydroxypropylcellulose) (HPC) 110 % of control | dose: 400.0 mg/kg/injection, schedule: Q04DX002 (ip), vehicle: Klucel (hydroxypropylcellulose) (HPC) 100 % of control

Cc1cnc(C#N)c(C#N)n1
inactive: dose: 12.5 mg/kg/injection, schedule: Q04DX002 (ip), vehicle: Klucel (hydroxypropylcellulose) (HPC) 100 % of control | dose: 25.0 mg/kg/injection, schedule: Q04DX002 (ip), vehicle: Klucel (hydroxypropylcellulose) (HPC) 96 % of control | dose: 50.0 mg/kg/injection, schedule: Q04DX002 (ip), vehicle: Klucel (hydroxypropylcellulose) (HPC) 96 % of control

CC(C)(C)OC(=O)CCC(NC(=O)OCc1ccccc1)C(=O)NN (stereo not given)
inactive: [1] 100 % of control | dose: 75.0 mg/kg/injection, schedule: Q01DX001 (ip), vehicle: Klucel (hydroxypropylcellulose) (HPC) 88 % of control | [2] 110 % of control | [3] 99 % of control | dose: 150.0 mg/kg/injection, schedule: Q01DX001 (ip), vehicle: Klucel (hydroxypropylcellulose) (HPC) 108 % of control | [4] 100 % of control | [5] 106 % of control | dose: 300.0 mg/kg/injection, schedule: Q01DX001 (ip), vehicle: Klucel (hydroxypropylcellulose) (HPC) 92 % of control | [6] 105 % of control

Cc1cccc(NC(N)=O)c1
inactive: dose: 50.0 mg/kg/injection, schedule: Q01DX009 (ip), vehicle: saline 96 % of control | dose: 100.0 mg/kg/injection, schedule: Q01DX009 (ip), vehicle: saline 97 % of control | dose: 100.0 mg/kg/injection, schedule: Q04DX003 (ip), vehicle: saline 95 % of control | dose: 200.0 mg/kg/injection, schedule: Q01DX009 (ip), vehicle: saline 94 % of control | dose: 200.0 mg/kg/injection, schedule: Q04DX003 (ip), vehicle: saline 97 % of control | dose: 400.0 mg/kg/injection, schedule: Q04DX003 (ip), vehicle: saline 94 % of control

CN1C(=O)CCS(=O)(=O)C1c1ccc(Cl)cc1 (stereo not given)
inactive: dose: 25.0 mg/kg/injection, schedule: Q01DX009 (ip), vehicle: Klucel (hydroxypropylcellulose) (HPC) 104 % of control | dose: 25.0 mg/kg/injection, schedule: Q04DX003 (ip), vehicle: Klucel (hydroxypropylcellulose) (HPC) 94 % of control | [1] 103 % of control | dose: 50.0 mg/kg/injection, schedule: Q04DX003 (ip), vehicle: Klucel (hydroxypropylcellulose) (HPC) 101 % of control | [2] 101 % of control | [3] 101 % of control | [4] 92 % of control | [5] 97 % of control | [6] 99 % of control

O=C1CCCCc2c1ccc(O)c2[N+](=O)[O-]
inactive: dose: 50.0 mg/kg/injection, schedule: Q01DX009 (ip), vehicle: saline with Tween-80 88 % of control
